Results on 24 molecules are retold here after patent publication US8557796B2, “Substituted 1-oxa-2,8-diaza-spiro [4,5] dec-2-ene derivatives and related treatment methods” (Gruenenthal GmbH, priority 2001, dated 2013).

The inhibition is the relative decrease from the control value, in per cent.

T1 sequence (Q9WTR4 1-597): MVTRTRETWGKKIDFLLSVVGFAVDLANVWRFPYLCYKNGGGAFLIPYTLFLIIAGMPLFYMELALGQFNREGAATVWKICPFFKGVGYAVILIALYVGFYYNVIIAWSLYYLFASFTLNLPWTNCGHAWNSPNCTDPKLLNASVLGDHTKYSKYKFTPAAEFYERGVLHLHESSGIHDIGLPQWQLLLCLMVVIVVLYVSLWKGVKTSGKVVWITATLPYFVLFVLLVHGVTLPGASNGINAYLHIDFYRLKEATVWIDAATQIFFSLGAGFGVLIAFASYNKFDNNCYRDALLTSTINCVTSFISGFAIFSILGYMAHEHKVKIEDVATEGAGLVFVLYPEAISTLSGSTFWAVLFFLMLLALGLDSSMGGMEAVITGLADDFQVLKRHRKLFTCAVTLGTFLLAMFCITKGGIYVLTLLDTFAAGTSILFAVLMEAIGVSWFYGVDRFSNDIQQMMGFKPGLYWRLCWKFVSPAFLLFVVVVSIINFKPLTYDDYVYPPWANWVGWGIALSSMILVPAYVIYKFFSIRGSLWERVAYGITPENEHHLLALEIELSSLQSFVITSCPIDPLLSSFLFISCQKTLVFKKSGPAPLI

This test has as its target T1, NA transporter (Rattus norvegicus, UniProt Q9WTR4).
T1 construct: synaptosomes from rat brain regions were freshly isolated; from tissue; host or cells: P2 synaptosome fraction from hypothalamus of male rat brain
The experiment in a line: Noradrenalin uptake inhibition (NA-uptake) in synaptosomes. In kind it is biochemical. Conditions: rat hypothalamus synaptosomes. The source says: Tests on Noradrenalin Uptake Inhibition (NA-Uptake Inhibition)
In order to be able to carry out these in vitro studies, synaptosomes from rat brain regions were freshly isolated.
`CN(C)S(=O)(=O)N1CCC2(CC1)CC(C(=O)NCCc1ccccc1)=NO2` [Example 7, 8-dimethylsulphamoyl-1-oxa-2,8-diaza-spiro[4,5]dec-2-ene-3-carboxylic acid phenethyl-amide] showed an inhibition at 10 µM of 50%.

`CC(NC(=O)C1=NOC2(CCN(S(=O)(=O)c3cccs3)CC2)C1)c1ccccc1` (stereo not drawn) [Example 8, 8-(thiophene-2-sulphonyl)-1-oxa-2,8-diaza-spiro[4,5]dec-2-ene-3-carboxylic acid (1-phenyl-ethyl)-amide] registered an inhibition at 10 µM of 48%.

`O=C(NCCN1CCCC1)C1=NOC2(CCN(S(=O)(=O)c3ccc(F)c(Cl)c3)CC2)C1` [Example 11]: the “NA-uptake, 10 μM, % inhibition” value stood at 41%.

Take `O=C(NCCc1ccccc1)C1=NOC2(CCN(S(=O)(=O)Cc3ccccc3)CC2)C1` [Example 12, 8-phenylmethanesulphonyl-1-oxa-2,8-diaza-spiro[4,5]dec-2-ene-3-carboxylic acid phenethyl-amide]: the inhibition at 10 µM stood at 54%.

Molecule `CN(C)CCNC(=O)C1=NOC2(CCN(S(=O)(=O)c3ccccc3)CC2)C1` [Example 13, 8-benzenesulphonyl-1-oxa-2,8-diaza-spiro[4,5]dec-2-ene-3-carboxylic acid (2-dimethylamino-ethyl)-amide] came in with an inhibition at 10 µM of 43%.

In turn, `Cc1ccc(S(=O)(=O)N2CCC3(CC2)CC(C(=O)N(CCc2ccccc2)Cc2ccccc2)=NO3)cc1` [Example 18, 8-(toluene-4-sulphonyl)-1-oxa-2,8-diaza-spiro[4,5]dec-2-ene-3-carboxylic acid benzyl-phenethyl-amide] showed an inhibition at 10 µM of 64%.

The molecule `O=C(NC1CCCC1OCc1ccccc1)C1=NOC2(CCN(S(=O)(=O)Cc3ccccc3)CC2)C1` (stereo not drawn) [Example 20, 8-phenylmethanesulphonyl-1-oxa-2,8-diaza-spiro[4,5]dec-2-ene-3-carboxylic acid (2-benzyloxy-cyclopentyl)-amide] yielded an inhibition at 10 µM of 70%.

As for `Cc1ccc(S(=O)(=O)N2CCC3(CC2)CC(C(=O)Nc2ccc(Oc4ccccc4)cc2)=NO3)cc1` [Example 22, 8-(toluene-4-sulphonyl)-1-oxa-2,8-diaza-spiro[4,5]dec-2-ene-3-carboxylic acid (4-phenoxy-phenyl)-amide], 10 µM produced 42% inhibition.

`Cc1ccc(C(C)NC(=O)C2=NOC3(CCN(S(=O)(=O)c4cccs4)CC3)C2)cc1` (stereo not drawn) [Example 23, 8-(thiophene-2-sulphonyl)-1-oxa-2,8-diaza-spiro[4,5]dec-2-ene-3-carboxylic acid (1-p-tolyl-ethyl)-amide] had an inhibition at 10 µM of 49%.

Regarding `O=C(NCc1ccc2c(c1)OCO2)C1=NOC2(CCN(S(=O)(=O)c3ccc(Cl)s3)CC2)C1` [Example 30, 8-(5-chloro-thiophene-2-sulphonyl)-1-oxa-2,8-diaza-spiro[4,5]dec-2-ene-3-carboxylic acid (benzo[1,3]dioxol-5-ylmethyl)-amide], the inhibition at 10 µM stood at 48%.

With `Cc1ccc(S(=O)(=O)N2CCC3(CC2)CC(C(=O)N2CCN(C(C)c4ccccc4)CC2)=NO3)cc1` (stereo not drawn) [Example 32, [4-(1-phenyl-ethyl)-piperazin-l-yl]-[8-(toluene-4-sulphonyl)-1-oxa-2,8-diaza-spiro[4,5]dec-2-en-3-yl]-methanone], the “NA-uptake, 10 μM, % inhibition” value worked out at 43%.

Regarding `O=C(NCc1cccs1)C1=NOC2(CCN(S(=O)(=O)c3ccc([N+](=O)[O-])cc3)CC2)C1` [Example 38, 8-(4-nitro-benzenesulphonyl)-1-oxa-2,8-diaza-spiro[4,5]dec-2-ene-3-carboxylic acid (thiophen-2-ylmethyl)-amide], testing at 10 µM gave an inhibition of 44%.

In the case of `Cc1ccc(C(C)NC(=O)C2=NOC3(CCN(S(=O)(=O)c4ccc(C)cc4)CC3)C2)cc1` (stereo not drawn) [Example 45, 8-(toluene-4-sulphonyl)-1-oxa-2,8-diaza-spiro[4,5]dec-2-ene-3-carboxylic acid (1-p-tolyl-ethyl)-amide], the inhibition at 10 µM was determined as 59%.

Consider `O=C(NC1CCCC1OCc1ccccc1)C1=NOC2(CCN(S(=O)(=O)c3cccs3)CC2)C1` (stereo not drawn) [Example 47, 8-(thiophene-2-sulphonyl)-1-oxa-2,8-diaza-spiro[4,5]dec-2-ene-3-carboxylic acid (2-benzyloxy-cyclopentyl)-amide], for which the inhibition at 10 µM came to 92%.

On to `Cc1ccc(S(=O)(=O)N2CCC3(CC2)CC(C(=O)NC2CC2c2ccccc2)=NO3)cc1` (stereo not drawn) [Example 75, 8-(toluene-4-sulphonyl)-1-oxa-2,8-diaza-spiro[4,5]dec-2-ene-3-carboxylic acid (2-phenyl-cyclopropyl)-amide], for which the inhibition at 10 µM is 65%.

For `O=C(NCCc1cccc(F)c1)C1=NOC2(CCN(S(=O)(=O)Cc3ccccc3)CC2)C1` [Example 78, 8-phenylmethanesulphonyl-1-oxa-2,8-diaza-spiro[4,5]dec-2-ene-3-carboxylic acid [2-(3-fluorophenyl)-ethyl]-amide], the inhibition at 10 µM was 42%.

Consider `O=C(NCC(c1ccccc1)c1ccccc1)C1=NOC2(CCN(S(=O)(=O)c3ccc(Cl)s3)CC2)C1` [Example 79, 8-(5-chloro-thiophene-2-sulphonyl)-1-oxa-2,8-diaza-spiro[4,5]dec-2-ene-3-carboxylic acid (2,2-diphenyl-ethyl)-amide], for which the inhibition at 10 µM stood at 58%.

`CN(C)S(=O)(=O)N1CCC2(CC1)CC(C(=O)N1CCN(CCCc3ccccc3)CC1)=NO2` [Example 80, 3-[4-(3-phenyl-propyl)-piperazine-1-carbonyl]-1-oxa-2,8-diaza-spiro[4,5]dec-2-ene-8-sulphonic acid dimethylamide] registered an inhibition at 10 µM of 60%.

For `CN(CCCNC(=O)C1=NOC2(CCN(S(=O)(=O)c3ccc(Cl)s3)CC2)C1)c1ccccc1` [Example 89], the “NA-uptake, 10 μM, % inhibition” value worked out at 68%.

On to `O=C(NCc1cccs1)C1=NOC2(CCN(C(=O)COc3cccc(Cl)c3)CC2)C1` [Example 96, 8-[2-(3-chloro-phenoxy)-acetyl]-1-oxa-2,8-diaza-spiro[4,5]dec-2-ene-3-carboxylic acid (thiophen-2-ylmethyl)-amide], for which the inhibition at 10 µM is 49%.

Take `O=C(C1=NOC2(CCN(S(=O)(=O)c3ccc(OC(F)(F)F)cc3)CC2)C1)N(CCc1ccccc1)Cc1ccccc1` [Example 97, 8-(4-trifluoromethoxy-benzenesulphonyl)-1-oxa-2,8-diaza-spiro[4,5]dec-2-ene-3-carboxylic acid benzyl-phenethyl-amide]: at 10 µM the inhibition was 83%.

In the case of `O=C(C1=NOC2(CCN(S(=O)(=O)c3cc(Cl)ccc3Cl)CC2)C1)N(CCc1ccccc1)Cc1ccccc1` [Example 98, 8-(2,5-dichloro-benzenesulphonyl)-1-oxa-2,8-diaza-spiro[4,5]dec-2-ene-3-carboxylic acid benzyl-phenethyl-amide], testing at 10 µM gave an inhibition of 82%.

`O=C(NCc1ccccc1)C1=NOC2(CCN(C(=O)c3ccncc3)CC2)C1` [Example 102, 8-(pyridine-4-carbonyl)-1-oxa-2,8-diaza-spiro[4,5]dec-2-ene-3-carboxylic acid benzylamide] displayed an inhibition at 10 µM of 48%.

In turn, `C=C(C)CN(CC)C(=O)C1=NOC2(CCN(S(=O)(=O)c3ccc(OC(F)(F)F)cc3)CC2)C1` [Example 103, 8-(4-trifluoromethoxy-benzenesulphonyl)-1-oxa-2,8-diaza-spiro[4,5]dec-2-ene-3carboxylic acid ethyl-(2-methyl-allyl)-amide] had an inhibition at 10 µM of 47%.
